The text below walks through data of PubChem BioAssay AID743267 (Broad Institute, 2014).

One experiment relates to human bronchial epithelial cells, CFTR corrector, plate reader. Briefly: CFTR ΔF508 corrector activity in bronchial cells, dose response, human bronchial epithelial cells, plate reader, cherry-pick, two tests (AID 743267). As to conditions: measured here: test 1 replicate run.
For orientation: AC50 means the midpoint of the concentration-response curve, whichever way the signal moves. A higher AC50 goes with weaker potency. `C[C@@H]1CN([C@@H](C)CO)C(=O)Cc2cc(N(C)C)ccc2O[C@@H]1CN(C)Cc1ccccc1`: the AC50 is 3.78 µM.
`COC(=O)C[C@@H]1CC[C@@H]2[C@H](COc3ccc(NC(=O)c4cc(C)on4)cc3C(=O)N2C)O1` displayed a concentration at half-maximal activity (AC50) of 3.67 µM.
On the same count and under the same terms, with `COc1ccc(-c2ccc3c(c2)[C@H]2[C@H](CCN2S(=O)(=O)c2ccc(OC)cc2)[C@@H](CO)N3C)cc1` the figure was 9.59 µM.
On the same count and under the same terms, the same measure for `COc1ccc(NC(=O)N(C)C[C@@H]2Oc3cc(C#CCC(C)C)ccc3S(=O)(=O)N([C@H](C)CO)C[C@@H]2C)cc1`: 16 µM; for `COc1ccc(S(=O)(=O)Nc2ccc3c(c2)C(=O)N([C@@H](C)CO)C[C@@H](C)[C@H](CN(C)Cc2ccc(Oc4ccccc4)cc2)O3)cc1`: 0.13 µM; for `COc1cccc(S(=O)(=O)N(C)C[C@@H]2Oc3cc(C4=CCCC4)ccc3S(=O)(=O)N([C@H](C)CO)C[C@H]2C)c1`: 16 µM.
The same measure, in the same setting: the same measure for `COc1ccc(S(=O)(=O)N2CC[C@@H]3[C@@H](CO)N(C)c4ccc(-c5ccc(F)cc5)cc4[C@@H]32)cc1`: 13 µM; for `COc1ccccc1S(=O)(=O)N1CC[C@@H]2[C@@H](CO)N(C)c3ccc(-c4ccc(F)cc4)cc3[C@@H]21`: 15 µM.

The same experiment, now with this note: measured here: test 2 replicate run.
On to `Cc1cccc(N(C)S(=O)(=O)c2ccc(-c3cc(C)no3)s2)c1`, for which the half-maximal activity concentration (AC50) came out at 0.738 µM.
Same read-out and setting: the same measure for `CCCC(=O)NC1=C(Cl)C(=O)c2ccccc2C1=O`: 11.8 µM; for `COc1cc(-c2noc(C)c2C#Cc2ccccn2)cc(OC)c1OC`: 0.747 µM.
Still for that read-out and setting: the same measure for `O=C1C=CN(C2OC(CO)C(O)C2O)C(=O)C1` (stereo not drawn): greater than 50 µM; for `CC1(C)OC(c2ccccc2)=C/C(=C/C=C2C(=O)NC(=S)NC2=O)O1`: 16.9 µM; for `O=C(OCc1ccc(Br)cc1)c1cc([N+](=O)[O-])ccc1N1CCOCC1`: 0.662 µM.
The molecule `COc1ccccc1NC(=O)CSc1ccc(-c2ccccn2)nn1` came in with an AC50 of 20 µM.
As to `O=C(NN=C1CCCC1)c1[nH]c2ccc(Cl)cc2c1-c1ccccc1`, the AC50 is 6.72 µM.
The same measure, in the same setting: with `Oc1cccc(/C=N/Nc2ccc(Cl)nn2)c1O` the figure was 16 µM.
Same read-out and setting: the same measure for `COc1cccc(C2c3cc4c(cc3OC(NNC(N)=O)C2C)OCO4)c1O` (stereo not drawn): 3.18 µM; for `CC(=NNC(=S)Nc1ccc(C)cc1)c1ccccn1`: 0.499 µM.
The same measure, in the same setting: the same measure for `C#C[C@]1(O)CC[C@H]2[C@@H]3CCc4cc(OC5CCCC5)ccc4[C@H]3CC[C@@]21C`: 3.31 µM; for `CCC1=Nc2cc(C(=O)NCc3cccnc3)ccc2Sc2ccc(C)cc21`: 6.64 µM; for `O=C(c1cccc(S(=O)(=O)N2CCN(c3ccc(F)cc3)CC2)c1)N1CCCC(C(F)(F)F)C1` (stereo not drawn): 16 µM.
As to `CN(Cc1ccco1)c1ncnc2ccc(-c3ccc4c(ccn4C)c3)cc12`, the concentration at half-maximal activity (AC50) is 1.77 µM.
`CCCn1c(CN2CCN(C(=O)OCC)CC2)nc2cc(NC(=O)CC)ccc21` displayed a concentration at half-maximal activity (AC50) of 4.34 µM.
Still for that read-out and setting: the same measure for `Cc1nn(S(=O)(=O)c2ccc(Cl)cc2)c(C)c1Sc1ccc([N+](=O)[O-])cc1`: greater than 32 µM.
Same read-out and setting: with `COc1nc(-c2ccccc2)cc(-c2ccc3c(c2)OCO3)c1C#N` the figure was 3.66 µM; with `COc1ccc(OC)c(-c2cc(-c3cccnc3)nc(N)c2C#N)c1`, 2.43 µM; with `COc1cccc(N=Nc2ccc3cccnc3c2O)c1`, greater than 50 µM.
Same read-out and setting: with `CCN(CC)c1ccc2c(cc1=O)[C@@H](NC)CCc1cc(OC)c(OC)c(OC)c1-2` the figure was 1.31 µM; with `COc1ccc(Nc2nc(-c3sc(C)nc3C)cs2)cc1`, 0.272 µM.
`CN1/C(=C\C=C2/SC(=S)NC2=O)C(C)(C)c2ccccc21` gave an AC50 of 18.5 µM.
Same read-out and setting: with `O=C(N/N=C/c1cccs1)c1cc(C2CC2)nc2ccccc12` the figure was 6.27 µM; with `CC1CCN(C(=O)c2ccc(S(=O)(=O)N3CCCC3)cc2)CC1`, greater than 50 µM; with `Cc1ccc(S(=O)(=O)N(Cc2cc3ccccc3[nH]c2=O)c2cccc(C)c2)cc1`, 8.17 µM.
As to `COc1cc(-c2nccc3cc4c(cc23)OCO4)cc(OC)c1OC`, the half-maximal activity concentration (AC50) was found to be 6.02 µM.
Still for that read-out and setting: the same measure for `CC(=O)Nc1sc2c(c1-c1nc3ccccc3s1)CN(C(C)C)CC2`: 1.43 µM; for `Cc1cnc(NC(=O)CCc2ccccc2)s1`: 6.6 µM.
`CC(=O)Oc1ccc(N2C(=O)c3cccc4c([N+](=O)[O-])ccc(c34)C2=O)cc1` came in with a concentration at half-maximal activity (AC50) of 20.6 µM.
For the molecule `O=C1OCC2=C1C(c1ccc3c(c1)OCO3)c1cc3c(cc1O2)OCO3` (stereo not drawn), the AC50 came to 2.12 µM.
Still for that read-out and setting: the same measure for `Cc1ccc(/C=N/NC(=O)c2ccc3ccccc3c2)s1`: 2.05 µM; for `c1ccc2c(NCCCN3CCOCC3)c3ccccc3nc2c1`: 3.51 µM.
The same measure, in the same setting: the same measure for `Cc1cccc(NC(=S)N/N=C/c2cccc(O)c2)c1C`: 3.86 µM.
Same read-out and setting: the same measure for `O=C(CCC(=O)N1CCOc2ccc(Cl)cc21)N1CCN(c2ccccn2)CC1`: greater than 50 µM; for `NS(=O)(=O)c1ccc(CCNc2nn3c(-c4cccc(OC(F)(F)F)c4)cnc3s2)cc1`: 1.99 µM; for `COc1ccc(OC)c(Nc2cc(C)nc3ccc(C)cc23)c1`: 10.7 µM.
As to `Nc1[nH]nc2ncc3cc4ccccc4nc3c12`, the concentration at half-maximal activity (AC50) was 17.7 µM.
On the same count and under the same terms, with `CCCC(=O)Nc1ccc2c(c1)nc(CN1CCN(C(=O)OCC)CC1)n2CC` the figure was 8.58 µM; with `COc1ccc(C(=O)c2ccc(N(C)C)cc2)c(OC)c1`, 3.82 µM.
